US20170340636A1, “COMPOSITIONS AND METHODS FOR INHIBITION OF AUTOPHAGY” (Board of Regents, The University of Texas System, priority 2016, published 2017)

Legend:
TAOK2 [1] = target: T1, TAOK2 (Rattus norvegicus, UniProt Q9JLS3); test: Kinase-Glo high-throughput screen / re-screen of TAOK2 activity (MBP substrate); format: biochemical; settings: estimate from HTS re-screen at 1, 3.3 and 10 μM
T1 construct: made in house
T1 sequence (Q9JLS3 1-320 limits assumed): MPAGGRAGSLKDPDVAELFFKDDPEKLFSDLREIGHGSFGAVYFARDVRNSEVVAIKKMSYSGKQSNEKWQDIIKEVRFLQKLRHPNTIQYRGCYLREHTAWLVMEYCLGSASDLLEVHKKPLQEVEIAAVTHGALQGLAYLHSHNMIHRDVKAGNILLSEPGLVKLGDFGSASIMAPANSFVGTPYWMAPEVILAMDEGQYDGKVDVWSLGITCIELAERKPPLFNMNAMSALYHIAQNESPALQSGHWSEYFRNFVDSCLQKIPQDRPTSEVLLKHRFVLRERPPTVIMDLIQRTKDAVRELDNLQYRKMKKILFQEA
Experimental: TAOK2 activity was screened in a high-throughput fashion using Kinase-Glo (Promega). A 20 μL, solution of 50 mM HEPES pH 7.4, 50 mM MgCl2, 1.27 mg/ml MBP and 0.005 mg/ml TAOK2 was added to each well of a 384 well Corning plate using a Biotek MultiFlo dispenser. 0.2 μl of compound (columns 3 to 22, 50 μM), DMSO negative control (columns 2, 23, and 24), or staurosporine positive control (column 1, 43.4 μM) were then added to each well with a Biomek Liquid handler. 10 μl of 50 μg/ml ATP solution was added to each well with a Labsystems Multidrop384. The plates were incubated at RT for 100 minutes. 20 μl Kinase Glo (Promega) was added to each well, and allowed to incubate for 10minutes under agitation. Luminescence was read on an Envision Multilabel plate reader.
After cherry picking primary hits, the selected compounds were assayed in a limited dose-response format (10, 3.3, and 1 μM) in triplicate using the primary enzymatic assay for TAOK2. The data for each assay well was normalized to the neutral controls. The normalized activity values (replicates) for each compound in each assay were then condensed to a single value (condensed activity) using the “Robust Condensing” method in Genedata Screener®. The condensed activity is the most representative single value of the triplicates. In general, the triplicates were pre-condensed into a pair of values as follows:
In order to study the relationship between TAOK2 and both cancer and autophagy, a high-throughput screen was performed using a 200,000 compound library to discover novel small-molecule kinase inhibitors (FIG. 1A-D). Phosphorylation reactions were performed in a 384 well format against the generic kinase substrate Myelin Basic Protein (MBP) with the addition of compound. Kinase-Glo (Promega) was then added to each well to detect remaining ATP concentration. Thus, inhibitory compounds would decrease TAOK2 activity, which would increase both remaining ATP concentration and luminescence in those wells.
After the initial screen, 1645 compounds were identified with inhibition greater than three σ above the mean DMSO control (FIG. 1A). The Z′ factor of the initial screen across all plates was 0.77, indicating high significance (FIG. 1B). These compounds were then re-screened in triplicate under the same conditions, with the compounds being assayed at three concentrations (1 μM, 3.3 μM, and 10 μM, FIG. 1C, D). 432 compounds were identified after the re-screen with average inhibitions greater than 10 sigma at the 10 μM concentration. The Z′ factor of the confirmation screen was 0.52, again indicating high significance.

TAOK2 [2] = target: T1, TAOK2; test: Radiometric kinase assay; format: biochemical; settings: determined radiometrically; MBP, γ-labeled ATP
Experimental: Radiometric activity assays of selected compounds against TAOK2 were conducted. A reaction solution of 0.02 mg/ml TAOK2, 50 mM MgCl2, 50 mM HEPES pH 7.5, 1 mg/ml MBP, and increasing compound concentration was made. The compound/DMSO solution was 5% by volume in the final reaction mixture. An ATP solution of 1:20 0.1 μCi/ml 32P -labeled ATP:1 mg/ml ATP was made. 10 μl of ATP solution was added to 50 μl of reaction solution, and allowed to react for 30 minutes. Reactions were stopped by blotting onto filter paper, then submerging in10% trifluoroacetic acid (TFA). Samples were washed 4 times in TFA, then put into scintillation vials. 5 ml Complete Counting Cocktail 3a70B (Research Products International Corp.) was added, and the vials were counted on a Beckman scintillation counter for 10 minutes.
Compounds SW034538 and SW083688 were both selective in the DSF measurements and effective in the GFP-LC3 degradation assays. These compounds were then chosen for radiometric analysis to determine their IC50 values (Table 1). TAOK2 was incubated with inhibitor, MBP, and γ-labeled ATP and allowed to react for 10 minutes. The concentrations of MBP and ATP were chosen such that the reaction was kept in the linear range for the duration of the experiment. […] IC50 value estimates were calculated from the results of the 200 k rescreen described above. […]

## CS(=O)(=O)c1ccc2nc(NC(=O)CCCOc3ccc(Cl)cc3)sc2c1 [SW172006]
TAOK2 [1]
  IC50: 5 µM

## CCC(=O)Nc1nc(C)c(-c2csc(Nc3cc(OC)ccc3OC)n2)s1 [SW034538]
TAOK2 [2]
  IC50: 300 nM

## CCOCCCn1c(=S)[nH]c2cc(C(=O)NCC3COc4ccccc4O3)ccc2c1=O (stereo not drawn) [SW083688]
TAOK2 [2]
  IC50: 1300 nM
